In publication PMC6286318, “Structure-function-guided exploration of the antimicrobial peptide polybia-CP identifies activity determinants and generates synthetic therapeutic candidates” (Communications Biology, 2018):
“Also recorded” adds a separate entry of the source. No end group written: not given here.

Columns and labels:
[1] = Stability assay, resistance to degradation in fetal bovine serum; type: in vitro ADME; details: GIBCO fetal bovine serum, RP-LC peak area, three independent replicates; for Resistance to protease-mediated degradation in fetal bovine serum (in words): followed up to 6 h
Protocol: Fig. 6 Hemolysis and resistance to protease-mediated degradation of engineered peptides. a Schematic of experimental design and hemolytic assay results of Pol-CP-NH2 and derivatives, where hemolytic activity was evaluated by incubating the peptides (0.1–100 μmol L^−1) with human red blood cells in PBS at room temperature for 1 h. Experiments were performed in three independent replicates. b Resistance to degradation of Pol-CP-NH2 and analogs exposed to fetal bovine serum (FBS) proteases for 6 h. Experiments were done in three independent replicates (statistical significance was determined using one-way ANOVA, *p < 0.039, error bars represent standard deviation values)
The resistance to degradation assay is detailed by Powell et al.[89], and peptides were exposed to GIBCO fetal bovine serum. The reaction kinetics were followed by reverse-phase liquid chromatography and the percentage of remaining peptide was calculated by integrating the peptide peak area.

[2] = RP-HPLC retention time (correlated with hydrophobicity); type: physicochemical; details: chromatographic, RP-HPLC Supelcosil C18 (4.6 x 150 mm), 60 Å, 5 μm; A 0.1% TFA/H2O, B 0.1% TFA in 90% ACN/H2O; 5-95% B in 30 minutes; 1.0 mL min-1; 220 nm; correlated with Heliquest hydrophobicity
Protocol: First, theoretical values of physicochemical features such as hydrophobicity, hydrophobic moment, and net positive charge were calculated, and helical wheels were generated using the Heliquest webserver[31] (Table 1 and Supplementary Figure 1). Hydrophobicity values produced by the server were correlated with retention times obtained by RP-HPLC analyses (Supplementary Table 1), confirming the accuracy of the computational predictions. Next, peptides were synthesized and tested against the Gram-negative bacteria Escherichia coli and Pseudomonas aeruginosa, as well as against the Gram-positive bacterium Staphylococcus aureus. We obtained slightly different results from those reported by Souza et al.[30], who described activity against Gram-positive bacteria but poor activity against Gram-negative species. […] MIC results were confirmed by colony-forming unit (CFU) counts of bacteria after one day of exposure to the peptides (Supplementary Figure 2).
Supplem enta r y Ta b le 1. Summary of Pol-CP-NH2 and desi gned anal ogs.
Label Pep t id e Sequence Molecular Ob s erv ed Pu rit y HPLC HC50 MIC SIe Cyt oto xic it y
Weight Molecular (%)b Retention (µmo l L-1)d Av er a g e (µmo l L-1)
(D a) Weight (D a)a Time (min)c (µmo l L-1)
aLC/ESI-MS data were obtained on a Model 6130 Infinity mass spectrometer coupled to a Model 1260 HPLC system (Agilent), using a Phenomenex Gemini C18 column (2.0 […]

[3] = Circular dichroism spectroscopy, helical fraction (fH); type: physicochemical; details: CD
Protocol: Fig. 3 Physicochemical features and structure of Pol-CP-NH2 and Ala-scan analogs. a Circular dichroism spectra of Pol-CP-NH2 and Ala-scan derivatives at 50 µmol L^−1 in water, PBS (pH 7.4) and TFE/Water (3:2, v/v) showing peptides transition from unstructured in water to helically structured in TFE/water. Circular dichroism spectra were recorded after four accumulations at 20 °C, using a 1 mm path length quartz cell, between 260 and 190 nm at 50 nm min^-1, with a bandwidth of 0.5 nm. b MIC (µmol L^−1) average for each peptide against the first set of bacteria (E. coli BL21, P. aeruginosa PA01 and PA14, and S. aureus ATCC12600) in three independent replicates vs. fH in TFE/Water solution, where blue boxes represent peptides with lower activity and red boxes show peptides with higher activity compared to the wild-type. Optimal activity is reached in most of the cases for fH values higher than the wild-type
Fig. 4 Physicochemical features and structure of Pol-CP-NH2 and second-generation analogs. Circular dichroism spectra of the peptides at 50 µmol L^−1 in water, MeOH/Water (1:1, v/v), PBS (pH 7.4), POPC (10 mmol L^−1), POPC:DOPE (3:1, 10 mmol L^−1), POPC:POPG (3:1, 10 mmol L^−1), SDS (20 mmol L^−1), TFE/Water (2:3, 3:2, 4:1, v/v) showing peptides transition from unstructured in water to helically structured in TFE/water. Circular dichroism spectra were recorded after four accumulations at 20 °C, using a 1 mm path length quartz cell, between 260 and 190 nm at 50 nm min^−1, with a bandwidth of 0.5 nm
Circular dichroism experiments were performed on a J-815 Circular Dichroism Spectropolarimeter (Jasco). Measurements conditions are described by Torres et al.[84] Peptides at 50 μmol L^−1 were analyzed in ten different environments: water, PBS (pH 7.4), methanol/water (1:1; v-v), TFE/Water (2:3, 3:2 and 4:1; v-v), 10 mmol L^−1 POPC, 10 mmol L^−1 POPC:DOPE (3:1) and 10 mmol L^−1 POPC:POPG (3:1). Vesicles were prepared according to Torres et al.[35]. A Fourier transform filter was applied to minimize background effects.

[4] = test system: HEK293 human embryonic kidney cells; assay: Cytotoxicity assay (MTS); type: cell-based; details: for Cytotoxic concentration relative to MIC against P. aeruginosa: HEK293, 48 h, MTS, compared with MIC against P. aeruginosa; for Cytotoxicity (concentration showing cytotoxic activity): HEK293, 50,000 cells per well, peptides 0-64 μmol L-1, 37 °C, 48 h, MTS assay, three independent replicates
Protocol: Fig. 7 Cytotoxicity of engineered peptides. a Schematic of the experimental design for cytotoxicity assays of Pol-CP-NH2 and derivatives against HEK293 human embryonic kidney cells. Briefly, cells were cultured in DMEM medium supplemented with FBS and antibiotics at 37 °C and 5% CO2 and b results obtained by seeding HEK293 50,000 cells and incubating with peptides’ solution (0–64 μmol L^−1) at 37 °C for 48 h. Cell viability was measured by MTS assay. All experiments were performed in independent triplicates (heat map values represent mean values of three independent replicates)
Human embryonic kidney 293 (HEK 293) cells were cultured in Dulbecco’s Modified Eagle Medium suplemented with 10% Fetal Bovine Serum and 1% penicillin-streptomycin at 37 °C in 5% CO2. The day before treatment, 50,000 HEK 293 cells were seeded into each well in 96-well plates. The peptides were added at concentrations ranging from 0 to 64 μmol L^−1 and 48 h after exposure, cell viability was measured by means of MTS (dimethylthiazol-carboxymethoxyphenyl-sulfophenyl-tetrazolium) assay. Experiments were performed in three independent replicates for each condition.

[5] = Toxicity to mice in the skin infection model (body weight); type: in vivo; details: infected mice treated with 64 μmol L-1 peptide; body weight normalized by non-infected mice
Protocol: Fig. 8 In vivo activity of Pol-CP-NH2 and its analogs. a Schematic of the experimental design. Briefly, the back of mice was shaved and an abrasion was generated to damage the stratum corneum and the upper layer of the epidermis. Subsequently, an aliquot of 50 μL containing 5 × 10^7 CFU of P. aeruginosa in PBS was inoculated over each defined area. […] Four animals per group were euthanized and the area of scarified skin was excised two days post-infection b homogenized using a bead beater for 20 min (25 Hz), and serially diluted for CFU quantification (statistical significance was determined using two-way ANOVA followed by Dunnett’s test, ****p < 0.0001). c Mouse body weight measurements throughout the experiment normalized by the body weight of non-infected mice.
The anti-infective activity of peptides against P. aeruginosa strain PA14 in a mouse model was assessed according to Pane et al.[90] CD-1 IGS female mice (six-weeks-old) were used and maintained in accordance with the Guide for the Care and Use of Laboratory Animals in an AAALAC-accredited facility. All procedures were approved by the MIT’s Institutional Animal Care and Use Committee (IACUC), protocol number 1016-064-19. Two independent experiments were performed with 4 mice per group in each condition. Statistical significance was assessed using a one-way ANOVA.

GLGTILGLLKSL-NH2 [Peptide 20, [Gly]^1-Pol-CP-NH2]
Resistance to protease-mediated degradation in fetal bovine serum (in words) [1]: degraded in a few minutes

ILETKLGLLKSE-NH2 [Peptide 19, [Glu]^3-[Lys]^5-[Glu]^12-Pol-CP-NH2]
HPLC Retention Time [2]: 9.2 min
Helical fraction fH, MeOH/Water (1:1) ([3]; peptide 50 µmol L-1, MeOH/Water 1:1 v/v, 20 °C): 0.02
Helical fraction fH, PBS ([3]; peptide 50 µmol L-1, PBS pH 7.4, 20 °C): 0.03
Helical fraction fH, POPC ([3]; peptide 50 µmol L-1, POPC 10 mmol L-1 vesicles, 20 °C): 0
Helical fraction fH, POPC/DOPE (3:1) ([3]; peptide 50 µmol L-1, POPC:DOPE 3:1 mol:mol 10 mmol L-1 vesicles, 20 °C): 0.03
Helical fraction fH, POPC/POPG (3:1) ([3]; peptide 50 µmol L-1, POPC:POPG 3:1 mol:mol 10 mmol L-1 vesicles, 20 °C): 0.04
Helical fraction fH, SDS ([3]; peptide 50 µmol L-1, SDS 20 mmol L-1 micelles, 20 °C): 0.13
Helical fraction fH, TFE/Water (2:3) ([3]; peptide 50 µmol L-1, TFE/Water 2:3 v/v, 20 °C): 0.24
Helical fraction fH, TFE/Water (3:2) ([3]; peptide 50 µmol L-1, TFE/Water 3:2 v/v, 20 °C): 0.21
Helical fraction fH, TFE/Water (4:1) ([3]; peptide 50 µmol L-1, TFE/Water 4:1 v/v, 20 °C): 0.31
Helical fraction fH, Water ([3]; peptide 50 µmol L-1, water, 20 °C, 1 mm cell): 0.05

ILGKILGLLKSL-NH2 [Peptide 15, [Lys]^4-Pol-CP-NH2]
Resistance to protease-mediated degradation in fetal bovine serum (in words) [1]: increased resistance to protease-mediated degradation
remaining at 6 h ([1]; six hours of exposure, read-out: Remaining peptide after exposure to fetal bovine serum): ~50%
Cytotoxic concentration relative to MIC against P. aeruginosa [4]: two-fold to four-fold higher than their MICs

ILGTILGLLKSL-NH2 [WT, Pol-CP-NH2, reference compound]
Toxicity to mice / body weight, in words [5]: did not change abruptly
Cytotoxicity (concentration showing cytotoxic activity) ([4]; listed as wild-type peptide): 32 µmol/L

ILGTILKLLKSL-NH2 [Peptide 16, [Lys]^7-Pol-CP-NH2]
Resistance to protease-mediated degradation in fetal bovine serum (in words) [1]: increased resistance to protease-mediated degradation
Toxicity to mice / body weight, in words [5]: did not change abruptly; also recorded: non-toxic to mice
Cytotoxicity (concentration showing cytotoxic activity) [4]: 16 µmol/L
Cytotoxic concentration relative to MIC against P. aeruginosa [4]: two-fold to four-fold higher than their MICs
